“And” between values parts separate entries of the source, which are not always exact repeats. Equal entries are not always repeated. Toxic doses and inconclusive results are not listed. Rule for the calls: active = survival T/C of 150% or more; inactive = T/C below 125% in these data.
Test system: CD2F1 mice, L1210 leukemia ip, survival T/C
Test: NCI In Vivo Anticancer Drug Screen. Data for tumor model L1210 Leukemia (intraperitoneal) in CD2F1 (CDF1) mice
Conditions: higher = longer survival
Summary of the method: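 Each value reflects a quotient of treated over vehicle control outcomes in mice with a transplanted tumor.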

[1] = endpoint: mean survival time, dose: 50.0 mg/kg/injection, schedule: Q01DX001 (ip), vehicle: saline
[2] = endpoint: mean survival time, dose: 100.0 mg/kg/injection, schedule: Q01DX001 (ip), vehicle: saline
[3] = endpoint: mean survival time, dose: 100.0 mg/kg/injection, schedule: Q01DX009 (ip), vehicle: saline with Tween-80
[4] = endpoint: mean survival time, dose: 200.0 mg/kg/injection, schedule: Q01DX001 (ip), vehicle: saline
[5] = endpoint: mean survival time, dose: 200.0 mg/kg/injection, schedule: Q01DX009 (ip), vehicle: saline with Tween-80
[6] = endpoint: mean survival time, dose: 400.0 mg/kg/injection, schedule: Q01DX009 (ip), vehicle: saline with Tween-80
[7] = endpoint: mean survival time, dose: 100.0 mg/kg/injection, schedule: Q04DX003 (ip), vehicle: saline with Tween-80
[8] = endpoint: mean survival time, dose: 200.0 mg/kg/injection, schedule: Q04DX003 (ip), vehicle: saline with Tween-80
[9] = endpoint: mean survival time, dose: 400.0 mg/kg/injection, schedule: Q04DX003 (ip), vehicle: saline with Tween-80
[10] = endpoint: mean survival time, dose: 100.0 mg/kg/injection, schedule: Q01DX001 (ip), vehicle: saline with Tween-80
[11] = endpoint: mean survival time, dose: 200.0 mg/kg/injection, schedule: Q01DX001 (ip), vehicle: saline with Tween-80
[12] = endpoint: mean survival time, dose: 400.0 mg/kg/injection, schedule: Q01DX001 (ip), vehicle: saline with Tween-80

Measured: T/C

OCc1ccc2[n+](c1)CCc1c-2[nH]c2ccccc12
inactive: endpoint: mean survival time, dose: 12.5 mg/kg/injection, schedule: Q01DX001 (ip), vehicle: saline with Tween-80 96 % of control | endpoint: mean survival time, dose: 12.5 mg/kg/injection, schedule: Q01DX009 (ip), vehicle: saline with Tween-80 98 % of control | endpoint: mean survival time, dose: 25.0 mg/kg/injection, schedule: Q01DX001 (ip), vehicle: saline with Tween-80 101 % of control | endpoint: mean survival time, dose: 25.0 mg/kg/injection, schedule: Q01DX009 (ip), vehicle: saline with Tween-80 94 % of control | endpoint: mean survival time, dose: 50.0 mg/kg/injection, schedule: Q01DX001 (ip), vehicle: saline with Tween-80 101 % of control | endpoint: mean survival time, dose: 50.0 mg/kg/injection, schedule: Q01DX009 (ip), vehicle: saline with Tween-80 100 % of control

COC(=O)c1cc(NC(=O)Nc2cc([N+](=O)[O-])ccc2Cl)cc(C(=O)OC)c1
inactive: [1] 92 % of control | [2] 86 % of control and 94 % of control | [3] 89 % of control and 95 % of control | endpoint: mean survival time, dose: 100.0 mg/kg/injection, schedule: Q04DX002 (ip), vehicle: saline 96 % of control | endpoint: mean survival time, dose: 100.0 mg/kg/injection, schedule: Q04DX003 (ip), vehicle: saline 95 % of control | [4] 89 % of control | [5] 95 % of control and 102 % of control | endpoint: mean survival time, dose: 200.0 mg/kg/injection, schedule: Q04DX002 (ip), vehicle: saline 93 % of control and 107 % of control | endpoint: mean survival time, dose: 200.0 mg/kg/injection, schedule: Q04DX003 (ip), vehicle: saline 102 % of control | endpoint: mean survival time, dose: 400.0 mg/kg/injection, schedule: Q01DX001 (ip), vehicle: saline 88 % of control | [6] 102 % of control and 103 % of control | endpoint: mean survival time, dose: 400.0 mg/kg/injection, schedule: Q04DX002 (ip), vehicle: saline 91 % of control and 96 % of control | endpoint: mean survival time, dose: 400.0 mg/kg/injection, schedule: Q04DX003 (ip), vehicle: saline 96 % of control

CCCCOS(=O)(=O)c1ccc(N)cc1
inactive: [7] 92 % of control | [8] 98 % of control | [9] 97 % of control

O=C(NC(Cc1ccccc1)C(=O)CCl)OCc1ccccc1 (centres undefined)
inactive: endpoint: mean survival time, dose: 25.0 mg/kg/injection, schedule: Q04DX003 (ip), vehicle: saline with Tween-80 97 % of control | endpoint: mean survival time, dose: 50.0 mg/kg/injection, schedule: Q04DX003 (ip), vehicle: saline with Tween-80 100 % of control | [7] 109 % of control

Cc1nc2ccc(N)cc2[nH]1
inactive: endpoint: mean survival time, dose: 50.0 mg/kg/injection, schedule: Q01DX009 (ip), vehicle: saline 95 % of control | endpoint: mean survival time, dose: 100.0 mg/kg/injection, schedule: Q01DX009 (ip), vehicle: saline 113 % of control | endpoint: mean survival time, dose: 200.0 mg/kg/injection, schedule: Q01DX009 (ip), vehicle: saline 95 % of control

Cc1ccc(C(=S)NC(=O)Nc2ccccc2)cc1
inactive: [10] 97 % of control | [11] 94 % of control | [12] 97 % of control

COC(=O)c1ccc(SCC2=Nc3c(nc(N)[nH]c3=O)NCC2)cc1
inactive: endpoint: mean survival time, dose: 0.38 mg/kg/injection, schedule: Q01DX009 (ip), vehicle: distilled water + Tween-80 100 % of control | endpoint: mean survival time, dose: 0.75 mg/kg/injection, schedule: Q01DX009 (ip), vehicle: distilled water + Tween-80 101 % of control | endpoint: mean survival time, dose: 1.5 mg/kg/injection, schedule: Q01DX009 (ip), vehicle: distilled water + Tween-80 105 % of control | endpoint: mean survival time, dose: 3.0 mg/kg/injection, schedule: Q01DX009 (ip), vehicle: distilled water + Tween-80 100 % of control | endpoint: mean survival time, dose: 6.0 mg/kg/injection, schedule: Q01DX009 (ip), vehicle: distilled water + Tween-80 101 % of control | endpoint: mean survival time, dose: 12.0 mg/kg/injection, schedule: Q01DX009 (ip), vehicle: distilled water + Tween-80 93 % of control | endpoint: mean survival time, dose: 48.0 mg/kg/injection, schedule: Q01DX009 (ip), vehicle: distilled water + Tween-80 88 % of control

Cc1cc(S(=O)(=O)F)cc(Cl)c1SC(=O)N(C)C
inactive: endpoint: mean survival time, dose: 100.0 mg/kg/injection, schedule: Q04DX002 (ip), vehicle: saline with Tween-80 91 % of control | endpoint: mean survival time, dose: 200.0 mg/kg/injection, schedule: Q04DX002 (ip), vehicle: saline with Tween-80 95 % of control | endpoint: mean survival time, dose: 400.0 mg/kg/injection, schedule: Q04DX002 (ip), vehicle: saline with Tween-80 91 % of control

CC(=O)NCc1cnccn1
inactive: endpoint: mean survival time, dose: 100.0 mg/kg/injection, schedule: Q04DX003 (ip), vehicle: saline sonified 103 % of control | endpoint: mean survival time, dose: 200.0 mg/kg/injection, schedule: Q04DX003 (ip), vehicle: saline sonified 102 % of control | endpoint: mean survival time, dose: 400.0 mg/kg/injection, schedule: Q04DX003 (ip), vehicle: saline sonified 102 % of control

CON=C(/C=C\c1ccccc1)/C=C/c1ccccc1
inactive: [10] 102 % of control | [3] 103 % of control | [11] 98 % of control | [5] 101 % of control | [12] 93 % of control | [6] 97 % of control

CCC(C)(OC(C)=O)C(=O)OC1C(=O)OC2CC3C(C)=CC(O)C(O)C3(C)C3C4(O)OCC23C1C(C)C4O (centres undefined)
inactive: endpoint: mean survival time, dose: 0.25 mg/kg/injection, schedule: Q01DX009 (ip), vehicle: saline + alcohol 98 % of control | endpoint: mean survival time, dose: 0.5 mg/kg/injection, schedule: Q01DX009 (ip), vehicle: saline + alcohol 102 % of control | endpoint: mean survival time, dose: 1.0 mg/kg/injection, schedule: Q01DX009 (ip), vehicle: saline + alcohol 106 % of control | endpoint: mean survival time, dose: 2.0 mg/kg/injection, schedule: Q01DX009 (ip), vehicle: saline + alcohol 98 % of control | endpoint: mean survival time, dose: 4.0 mg/kg/injection, schedule: Q01DX009 (ip), vehicle: saline + alcohol 96 % of control

Cc1ccc(S(=O)(=O)N/N=C/c2ccc(Cl)s2)cc1
inactive: [10] 94 % of control | [11] 97 % of control | [12] 97 % of control

Nc1ccccc1CO
inactive: [7] 100 % of control | [8] 95 % of control | [9] 95 % of control

N/C(=N\OC(=O)Nc1ccc(CSc2ccc(Cl)cc2)o1)c1ccccn1
inactive: endpoint: median survival time, dose: 12.5 mg/kg/injection, schedule: Q01DX009 (ip), vehicle: Klucel (hydroxypropylcellulose) (HPC) 98 % of control | endpoint: median survival time, dose: 25.0 mg/kg/injection, schedule: Q01DX009 (ip), vehicle: Klucel (hydroxypropylcellulose) (HPC) 103 % of control | endpoint: median survival time, dose: 50.0 mg/kg/injection, schedule: Q01DX009 (ip), vehicle: Klucel (hydroxypropylcellulose) (HPC) 102 % of control | endpoint: median survival time, dose: 100.0 mg/kg/injection, schedule: Q01DX009 (ip), vehicle: Klucel (hydroxypropylcellulose) (HPC) 102 % of control | endpoint: median survival time, dose: 200.0 mg/kg/injection, schedule: Q01DX009 (ip), vehicle: Klucel (hydroxypropylcellulose) (HPC) 95 % of control

O=C(O)c1c(O)cccc1O
inactive: [1] 98 % of control | [2] 98 % of control | [4] 101 % of control

O=C(Nc1ccccc1C(F)(F)F)OCCOc1ccc(Br)cc1
inactive: endpoint: mean survival time, dose: 100.0 mg/kg/injection, schedule: Q01DX009 (ip), vehicle: Klucel (hydroxypropylcellulose) (HPC) 100 % of control | endpoint: mean survival time, dose: 200.0 mg/kg/injection, schedule: Q01DX009 (ip), vehicle: Klucel (hydroxypropylcellulose) (HPC) 103 % of control | endpoint: mean survival time, dose: 400.0 mg/kg/injection, schedule: Q01DX009 (ip), vehicle: Klucel (hydroxypropylcellulose) (HPC) 87 % of control

CCOC(=O)C(C)Oc1ccc(Cl)cc1 (centres undefined)
inactive: endpoint: mean survival time, dose: 25.0 mg/kg/injection, schedule: Q01DX009 (ip), vehicle: water 107 % of control | endpoint: mean survival time, dose: 50.0 mg/kg/injection, schedule: Q01DX009 (ip), vehicle: water 106 % of control | endpoint: mean survival time, dose: 100.0 mg/kg/injection, schedule: Q01DX009 (ip), vehicle: water 106 % of control | endpoint: mean survival time, dose: 200.0 mg/kg/injection, schedule: Q01DX009 (ip), vehicle: water 107 % of control | endpoint: mean survival time, dose: 400.0 mg/kg/injection, schedule: Q01DX009 (ip), vehicle: water 109 % of control

Nc1nc(-c2cccc([N+](=O)[O-])c2)c(N=Nc2ccccc2)s1
inactive: [10] 95 % of control | [11] 100 % of control

Source: PubChem BioAssay AID256 (DTP/NCI, 2004)
